Measured values as given in patent publication US6861434B2, “Antipsychotic aminomethyl derivatives of 1,3,7,8-tetrahydro-6,9-dioxa-1,3-diaza-cyclopenta[a]-naphthalen-2-one” (Wyeth, priority 2001, dated 2005).
Counter-ions that a name gives are not always drawn.

biological target: T1, dopamine D2 receptor (Rattus norvegicus, UniProt P61169); assay: Dopamine D2 receptor affinity, 3H-quinpirole binding in homogenized rat striatal brain tissue
T1 construct: from tissue; host or cells: rat striatal brain tissue homogenate
T1 sequence (P61169 whole entry): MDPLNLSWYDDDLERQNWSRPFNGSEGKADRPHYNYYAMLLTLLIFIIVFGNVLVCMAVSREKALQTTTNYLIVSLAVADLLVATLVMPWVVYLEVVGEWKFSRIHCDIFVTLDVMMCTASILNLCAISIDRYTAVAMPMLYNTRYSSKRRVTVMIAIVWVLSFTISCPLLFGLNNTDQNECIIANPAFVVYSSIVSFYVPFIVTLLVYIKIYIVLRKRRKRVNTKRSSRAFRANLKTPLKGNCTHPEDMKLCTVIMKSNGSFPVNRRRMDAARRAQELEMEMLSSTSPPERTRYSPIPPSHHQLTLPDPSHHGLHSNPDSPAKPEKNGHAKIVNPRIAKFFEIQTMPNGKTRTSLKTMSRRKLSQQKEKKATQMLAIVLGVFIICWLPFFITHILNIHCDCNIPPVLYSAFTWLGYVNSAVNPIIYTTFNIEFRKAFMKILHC
Procedure: Affinity for the dopamine D2 receptor was established by a modification of the standard experimental test procedure of Seemen and Schaus, European Journal of Pharmacology 203: 105-109, 1991, wherein homogenized rat striatal brain tissue is incubated with ^3H-quinpirole and various concentrations of test compound, filtered and washed and counted in a Betaplate scintillation counter.

IC50 [nM]	SMILES
0.39	O=c1[nH]c2ccc3c(c2[nH]1)OC(CNCc1ccccc1)CO3 (stereo not drawn) [Example 1, 8-(Benzylamino-methyl)-1,3,7,8-tetrahydro-6,9-dioxa-1,3-diaza-cyclopenta[a]naphthalen-2-one]
0.18	O=c1[nH]c2ccc3c(c2[nH]1)OC(CNCCCCc1ccccc1)CO3 (stereo not drawn) [Example 2, 8-[(4-Phenyl-butylamino)-methyl]-1,3,7,8-tetrahydro-6,9-dioxa-1,3-diaza-cyclopenta[a]naphthalen-2-one]
6.78	O=c1[nH]c2ccc3c(c2[nH]1)O[C@@H](CN1CCc2ccccc2C1)CO3 [Example 5]
0.55	CC(=O)Nc1cccc(OCCCNCC2COc3ccc4[nH]c(=O)[nH]c4c3O2)c1 (stereo not drawn) [Example 7, N-(3-{3-[(2-Oxo-2,3,7,8-tetrahydro-1H-6,9-dioxa-1,3-diaza-cyclopenta[a]naphthalen-8-ylmethyl)-amino]propoxy}-phenyl)-acetamide]
0.84	O=c1[nH]c2ccc3c(c2[nH]1)OC(CNCC12CC4CC(CC(C4)C1)C2)CO3 (stereo not drawn) [Example 4, 8-{[(Adamantan-1-ylmethyl)-amino]-methyl}-1,3,7,8-tetrahydro-6,9-dioxa-1,3-diaza-cyclopenta[a]naphthalen-2-one]
0.02	O=c1[nH]c2ccc3c(c2[nH]1)OC(CNCCCc1c[nH]c2ccccc12)CO3 (stereo not drawn) [Example 8, 8-{[3-(1H-indol-3-yl)-propylamino]-methyl}-1,3,7,8-tetrahydro-6,9-dioxa-1,3-diaza-cyclopenta[a]naphthalen-2-one]
1.43	O=C(c1ccc(F)cc1)C1CCN(C[C@H]2COc3ccc4[nH]c(=O)[nH]c4c3O2)CC1 [Example 6, 8-[4-(4-Fluoro-benzoyl)-piperidin-1-ylmethyl]-1,3,7,8-tetrahydro-6,9-dioxa-1,3-diaza-cyclopenta[a]naphthalen-2-one]

SMILES	IC50 [nM]
O=c1[nH]c2ccc3c(c2[nH]1)OC(CN1CC=C(c2ccccc2)CC1)CO3 (stereo not drawn) [Example 3, 8-(4-Phenyl-5,6-dihydro-2H-pyridin-1-ylmethyl)-1,3,7,8-tetrahydro-6,9-dioxa-1,3-diaza-cyclopenta[a]naphthalen-2-one]	1.3

tested on: not given; assay: not given

melting point	SMILES
> 275 °C	O=c1[nH]c2ccc3c(c2[nH]1)OC(CN1CCC2C=CC=CC2C1)CO3 (stereo not drawn) (as salt: hydrochloride) [Example 5]
149 to 151 °C	O=c1[nH]c2ccc3c(c2[nH]1)OC(CNCc1ccccc1)CO3 (stereo not drawn) (as salt: fumarate) (hydrate or solvate) [Example 1, 8-(Benzylamino-methyl)-1,3,7,8-tetrahydro-6,9-dioxa-1,3-diaza-cyclopenta[a]naphthalen-2-one]
> 250 °C	O=c1[nH]c2ccc3c(c2[nH]1)OC(CNCC12CC4CC(CC(C4)C1)C2)CO3 (stereo not drawn) (as salt: hydrochloride) (hydrate or solvate) [Example 4, 8-{[(Adamantan-1-ylmethyl)-amino]-methyl}-1,3,7,8-tetrahydro-6,9-dioxa-1,3-diaza-cyclopenta[a]naphthalen-2-one]
224 to 226 °C	O=c1[nH]c2ccc3c(c2[nH]1)OC(CNCCCCc1ccccc1)CO3 (stereo not drawn) (as salt: fumarate) (hydrate or solvate) [Example 2, 8-[(4-Phenyl-butylamino)-methyl]-1,3,7,8-tetrahydro-6,9-dioxa-1,3-diaza-cyclopenta[a]naphthalen-2-one]
125 °C (dec.)	CC(=O)Nc1cccc(OCCCNCC2COc3ccc4[nH]c(=O)[nH]c4c3O2)c1 (stereo not drawn) (as salt: fumarate) (hydrate or solvate) [Example 7, N-(3-{3-[(2-Oxo-2,3,7,8-tetrahydro-1H-6,9-dioxa-1,3-diaza-cyclopenta[a]naphthalen-8-ylmethyl)-amino]propoxy}-phenyl)-acetamide]
200 to 207 °C (dec.)	O=c1[nH]c2ccc3c(c2[nH]1)OC(CNCCCc1c[nH]c2ccccc12)CO3 (stereo not drawn) (as salt: hydrochloride) [Example 8, 8-{[3-(1H-indol-3-yl)-propylamino]-methyl}-1,3,7,8-tetrahydro-6,9-dioxa-1,3-diaza-cyclopenta[a]naphthalen-2-one]

SMILES	melting point
O=c1[nH]c2ccc3c(c2[nH]1)OC(CN1CC=C(c2ccccc2)CC1)CO3 (stereo not drawn) (as salt: fumarate) (hydrate or solvate) [Example 3, 8-(4-Phenyl-5,6-dihydro-2H-pyridin-1-ylmethyl)-1,3,7,8-tetrahydro-6,9-dioxa-1,3-diaza-cyclopenta[a]naphthalen-2-one]	205 to 209 °C
